This note sets out measurements from patent EP4810052A2, “HCRHR2 SELECTIVE POLYPEPTIDES” (Gubra A/S, priority 2023, dated 2026).

Like-named read-outs stand apart in the source and are kept apart here. Starred links: 1 amine or outer side, 2 acyl side, 3 side chain; linkers in the order of their positions; H or OH if unused. Non-standard residues stand in square brackets, D forms with d. Residues, ends and D or L forms follow the SMILES beside them. Groups on a side chain read outwards from the residue. *: point of attachment. C20 diacid = O=C(O)CCCCCCCCCCCCCCCCCCC(=O)*; γGlu = O=C(O)[C@H](CCC(=O)[*:2])N[*:1]; Nle = CCCC[C@H](N)C(=O)O; AEEA = NCCOCCOCC(=O)O

For one test, the target named is T1, hCRHR1 (Homo sapiens, UniProt P34998).
T1 sequence (P34998 24-415): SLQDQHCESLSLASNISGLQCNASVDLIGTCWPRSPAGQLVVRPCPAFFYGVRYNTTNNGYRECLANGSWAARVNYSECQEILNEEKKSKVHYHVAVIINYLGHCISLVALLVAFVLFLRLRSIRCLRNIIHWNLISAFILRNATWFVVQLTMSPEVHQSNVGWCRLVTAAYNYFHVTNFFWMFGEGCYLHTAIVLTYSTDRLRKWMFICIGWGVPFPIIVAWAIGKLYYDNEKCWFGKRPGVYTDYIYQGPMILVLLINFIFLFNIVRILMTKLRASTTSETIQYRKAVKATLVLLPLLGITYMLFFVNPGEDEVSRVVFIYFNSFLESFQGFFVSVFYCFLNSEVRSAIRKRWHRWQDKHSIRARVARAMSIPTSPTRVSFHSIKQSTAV
Put plainly: HTRF cAMP assay, determination of hCRHR1 potency (peptide libraries 5 conc., purified peptides 11 conc.). It counts as cell-based. Put shortly: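 CHO-K1 cells stably expressing human CRHR1, thawed from frozen stocks just before use, were stimulated in suspension with agonist peptides. cAMP was measured by HTRF competitive immunoassay (cryptate anti-cAMP antibody vs d2-cAMP).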
For orientation: TR-FRET usually uses a lanthanide donor and a delayed reading to cut background.

The target of a further test is T2, hCRHR2 (Homo sapiens, UniProt Q13324).
T2 sequence (Q13324 1-411): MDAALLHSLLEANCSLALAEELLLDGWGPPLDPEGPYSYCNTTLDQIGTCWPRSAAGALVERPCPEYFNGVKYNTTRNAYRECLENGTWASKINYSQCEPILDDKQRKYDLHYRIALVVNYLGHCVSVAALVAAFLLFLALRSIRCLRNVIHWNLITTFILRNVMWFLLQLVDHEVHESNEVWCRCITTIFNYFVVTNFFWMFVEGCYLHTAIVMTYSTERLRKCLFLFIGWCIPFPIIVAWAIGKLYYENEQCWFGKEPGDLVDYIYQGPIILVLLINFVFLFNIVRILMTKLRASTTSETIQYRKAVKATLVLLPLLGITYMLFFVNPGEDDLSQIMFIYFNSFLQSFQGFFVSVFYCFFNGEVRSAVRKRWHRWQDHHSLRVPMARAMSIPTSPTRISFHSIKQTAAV
Put plainly: HTRF cAMP assay, determination of hCRHR2 potency (peptide libraries 5 conc., purified peptides 11 conc.). It counts as cell-based. A digest of the protocol:
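CHO-K1 cells stably expressing human CRHR2 were thawed from frozen stocks immediately before use and assayed in suspension with agonist peptides. cAMP was measured by time-resolved FRET in a competitive immunoassay between cryptate-labelled anti-cAMP antibody and d2-labelled cAMP. EC50 values came from nonlinear regression, sigmoid variable-slope fit.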

Setting [1] is: library peptides, matched molecular pairs L vs Nle in position X^38, read-out: Potency hCRHR1 pEC50 (converted).
[2] abbreviates: library peptides, matched molecular pairs L vs Nle in position X^38, read-out: Potency hCRHR2 pEC50 (converted).

For the compound `CC[C@H](C)[C@H](N)C(=O)N[C@H](C(=O)N[C@@H](CC(C)C)C(=O)N[C@@H](CO)C(=O)N[C@@H](CC(C)C)C(=O)N[C@@H](CC(=O)O)C(=O)N[C@H](C(=O)N1CCC[C@H]1C(=O)N[C@H](C(=O)NCC(=O)N[C@@H](CC(C)C)C(=O)N[C@@H](CC(C)C)C(=O)N[C@@H](CCC(N)=O)C(=O)N[C@H](C(=O)N[C@@H](CC(C)C)C(=O)N[C@@H](CC(C)C)C(=O)N[C@@H](CCC(=O)O)C(=O)N[C@@H](CCC(N)=O)C(=O)N[C@@H](C)C(=O)N[C@@H](CCCNC(=N)N)C(=O)N[C@@H](C)C(=O)N[C@@H](CCCNC(=N)N)C(=O)N[C@@H](C)C(=O)N[C@@H](C)C(=O)N[C@@H](CCCNC(=N)N)C(=O)N[C@@H](CCC(=O)O)C(=O)N[C@@H](CCC(=O)O)C(=O)N[C@@H](C)C(=O)N[C@@H](CCCCNC(=O)COCCOCCNC(=O)COCCOCCNC(=O)CC[C@H](NC(=O)CC[C@H](NC(=O)CCCCCCCCCCCCCCCCCCC(=O)O)C(=O)O)C(=O)O)C(=O)N[C@H](C(=O)N[C@@H](CC(N)=O)C(=O)N[C@@H](C)C(=O)N[C@@H](CCC(=O)O)C(=O)N[C@H](C(=O)N[C@@H](CC(C)C)C(=O)N[C@@H](C)C(=O)N[C@@H](CCC(=O)O)C(=O)N[C@H](C(N)=O)[C@@H](C)CC)[C@@H](C)CC)[C@@H](C)O)[C@@H](C)CC)[C@@H](C)CC)C(C)C)C(C)C` [compound 74] (H-IVLSLDVPIGLLQILLEQARARAAREEAK([AEEA-AEEA-γGlu-γGlu-C20 diacid])TNAEILAEI-NH2), the EC50 was 158000 nM at hCRHR1 (setting [1]) and 2 nM at hCRHR2 (setting [2]).
Consider `CCCC[C@H](NC(=O)[C@@H](NC(=O)[C@H](CCC(=O)O)NC(=O)[C@H](C)NC(=O)[C@H](CC(N)=O)NC(=O)[C@@H](NC(=O)[C@H](CCCCNC(=O)COCCOCCNC(=O)COCCOCCNC(=O)CC[C@H](NC(=O)CC[C@H](NC(=O)CCCCCCCCCCCCCCCCCCC(=O)O)C(=O)O)C(=O)O)NC(=O)[C@H](C)NC(=O)[C@H](CCCNC(=N)N)NC(=O)[C@H](CCC(=O)O)NC(=O)[C@H](CCCNC(=N)N)NC(=O)[C@H](C)NC(=O)[C@H](C)NC(=O)[C@H](CCCNC(=N)N)NC(=O)[C@H](C)NC(=O)[C@H](CCCNC(=N)N)NC(=O)[C@H](C)NC(=O)[C@H](CCC(N)=O)NC(=O)[C@H](CCC(=O)O)NC(=O)[C@H](CC(C)C)NC(=O)[C@H](CC(C)C)NC(=O)[C@@H](NC(=O)[C@H](CCC(N)=O)NC(=O)[C@H](CC(C)C)NC(=O)[C@H](CC(C)C)NC(=O)CNC(=O)[C@@H](NC(=O)[C@@H]1CCCN1C(=O)[C@@H](NC(=O)[C@H](CC(=O)O)NC(=O)[C@H](CC(C)C)NC(=O)[C@H](CO)NC(=O)[C@H](CC(C)C)NC(=O)[C@@H](NC(=O)[C@@H](N)[C@@H](C)CC)C(C)C)C(C)C)[C@@H](C)CC)[C@@H](C)CC)[C@@H](C)O)[C@@H](C)CC)C(=O)N[C@@H](C)C(=O)N[C@@H](CCC(=O)O)C(=O)N[C@H](C(N)=O)C(C)C` [compound 67] (H-IVLSLDVPIGLLQILLEQARARAARERAK([AEEA-AEEA-γGlu-γGlu-C20 diacid])TNAEI[Nle]AEV-NH2), for which the EC50 on hCRHR1 is 2000 nM; at hCRHR2, 0.126 nM.
Regarding `CC[C@H](C)[C@H](N)C(=O)N[C@H](C(=O)N[C@@H](CC(C)C)C(=O)N[C@@H](CO)C(=O)N[C@@H](CC(C)C)C(=O)N[C@@H](CC(=O)O)C(=O)N[C@H](C(=O)N1CCC[C@H]1C(=O)N[C@H](C(=O)NCC(=O)N[C@@H](CC(C)C)C(=O)N[C@@H](CC(C)C)C(=O)N[C@@H](CCC(N)=O)C(=O)N[C@H](C(=O)N[C@@H](CC(C)C)C(=O)N[C@@H](CC(C)C)C(=O)N[C@@H](CO)C(=O)N[C@@H](CCC(N)=O)C(=O)N[C@@H](C)C(=O)N[C@@H](CCCNC(=N)N)C(=O)N[C@@H](C)C(=O)N[C@@H](CCCNC(=N)N)C(=O)N[C@@H](C)C(=O)N[C@@H](C)C(=O)N[C@@H](CCCNC(=N)N)C(=O)N[C@@H](CCC(=O)O)C(=O)N[C@@H](CCC(N)=O)C(=O)N[C@@H](C)C(=O)N[C@@H](CCCCNC(=O)COCCOCCNC(=O)COCCOCCNC(=O)CC[C@H](NC(=O)CC[C@H](NC(=O)CCCCCCCCCCCCCCCCCCC(=O)O)C(=O)O)C(=O)O)C(=O)N[C@H](C(=O)N[C@@H](CC(N)=O)C(=O)N[C@@H](C)C(=O)N[C@@H](CCC(=O)O)C(=O)N[C@H](C(=O)N[C@@H](CC(C)C)C(=O)N[C@@H](C)C(=O)N[C@@H](CCC(=O)O)C(=O)N[C@H](C(N)=O)C(C)C)[C@@H](C)CC)[C@@H](C)O)[C@@H](C)CC)[C@@H](C)CC)C(C)C)C(C)C` [compound 82] (H-IVLSLDVPIGLLQILLSQARARAAREQAK([AEEA-AEEA-γGlu-γGlu-C20 diacid])TNAEILAEV-NH2), the results for the EC50 on hCRHR1 (setting [1]) and on hCRHR2 (setting [2]) were 158000 nM and 0.631 nM, respectively.
As for `CCCC[C@H](NC(=O)[C@@H](NC(=O)[C@H](CCC(=O)O)NC(=O)[C@H](C)NC(=O)[C@H](CC(N)=O)NC(=O)[C@@H](NC(=O)[C@H](CCCCNC(=O)COCCOCCNC(=O)COCCOCCNC(=O)CC[C@H](NC(=O)CC[C@H](NC(=O)CCCCCCCCCCCCCCCCCCC(=O)O)C(=O)O)C(=O)O)NC(=O)[C@H](C)NC(=O)[C@H](CCC(N)=O)NC(=O)[C@H](CCC(=O)O)NC(=O)[C@H](CCCNC(=N)N)NC(=O)[C@H](CCC(N)=O)NC(=O)[C@H](C)NC(=O)[C@H](CCCNC(=N)N)NC(=O)[C@H](C)NC(=O)[C@H](CCCNC(=N)N)NC(=O)[C@H](C)NC(=O)[C@H](CCC(N)=O)NC(=O)[C@H](CCC(=O)O)NC(=O)[C@H](CC(C)C)NC(=O)[C@H](CC(C)C)NC(=O)[C@@H](NC(=O)[C@H](CCC(N)=O)NC(=O)[C@H](CC(C)C)NC(=O)[C@H](CC(C)C)NC(=O)CNC(=O)[C@@H](NC(=O)[C@@H]1CCCN1C(=O)[C@@H](NC(=O)[C@H](CC(=O)O)NC(=O)[C@H](CC(C)C)NC(=O)[C@H](CO)NC(=O)[C@H](CC(C)C)NC(=O)[C@@H](NC(=O)[C@@H](N)[C@@H](C)CC)C(C)C)C(C)C)[C@@H](C)CC)[C@@H](C)CC)[C@@H](C)O)[C@@H](C)CC)C(=O)N[C@@H](C)C(=O)N[C@@H](CCC(=O)O)C(=O)N[C@H](C(N)=O)[C@@H](C)CC` [compound 65] (H-IVLSLDVPIGLLQILLEQARARAQREQAK([AEEA-AEEA-γGlu-γGlu-C20 diacid])TNAEI[Nle]AEI-NH2), the EC50 is 158 nM at hCRHR1 (setting [1]) and 0.1 nM on hCRHR2 (setting [2]).
